Assays:
Assay type in all cases: in vivo
[1] = system: caterpillars of the owlet moth Spodoptera frugiperda; test: Spodoptera frugiperda Test (cabbage leaf dip); settings: concentration of active compound 0.1%, after 7 days, cabbage leaves dipped
Protocol: Spodoptera frugiperda Test
(§1) To produce a suitable preparation of active compound, 1 part by weight of active compound is mixed with the stated amount of solvent and the stated amount of emulsifier, and the concentrate is diluted with water to the desired concentration.
Cabbage leaves (Brassica oleracea) are treated by being dipped into the preparation of active compound of the desired concentration and are populated with caterpillars of the owlet moth Spodoptera frugiperda) while the leaves are still moist.
After the desired period of time, the kill in % is determined. 100% means that all caterpillars have been killed; 0% means that none of the caterpillars haven been killed.

[2] = system: greenhouse red spider mite Tetranychus urticae; test: Tetranychus Test (OP-resistent/dip Treatment); settings: concentration of active compound 0.1%, after 13 days, infested bean plants dipped, all stages
Protocol: Tetranychus Test (OP-resistent/dip Treatment)
as §1
Bean plants (Phaseolus vulgaris) which are heavily infested by all stages of the greenhouse red spider mite Tetranychus urticae are dipped into a perparation of active compound of the desired concentration.
After the desired period of time, the kill in % is determined. 100% means that all spider mites haven been killed: 0% means that none of the spider mites have been killed.

[3] = system: peach aphids (Myzus persicae); test: Myzus-Test (cabbage leaf dip); settings: concentration of active compound 0.1%, after 6 days, infested cabbage leaves dipped
Protocol: To produce a suitable preparation of active compound, 1 part by weight of active compound is mixed with the state amount of solvent and the stated amount of emulsifier, and the concentrate is diluted with water to the desired concentration.
Cabbage leaves (Brassica oleracea) which are heavily infested by peach aphids (Myzus persicae) are treated by being dipped into the preparation of active compound of the desired concentration.
After the desired period of time, the kill in % is determined. 100% means that all aphids have been killed; 0% means that none of the aphids have been killed.

[4] = system: green rice leaf hoppers (Nephotettix cincticeps); test: Nephotettix-Test (rice seedling dip); settings: concentration of active compound 0.1%, after 6 days, rice seedlings dipped
Protocol: as §1
Rice seedlings (Oryzae sativa) are treated by being dipped into the preparation of active compound of the desired concentration and are populated with the green rice leaf hoppers (Nephotettix cincticeps) while the seedlings are still moist.
After the desired period of time, the kill in % is determined. 100% means that all leaf hoppers have been killed; 0% means that none of the leaf hoppers have been killed.

[5] = system: larvae of the mustard beetle (Phaedon cochleariae); test: Phaedon larvae Test (cabbage leaf dip); settings: concentration of active compound 0.1%, after 7 days, cabbage leaves dipped
Protocol: Phaedon larvae Test [table] To produce a suitable preparation of active compound, 1 part by weight of active compound is mixed with the stated amount of solvent and the stated amount of emulsifier, and the concentrate is diluted with water to the desired concentration. Cabbage leaves (Brassica oleracea) are treated by being dipped into the preparation of active compound of the desired concentration and are populated with larvae of the mustard beetle (Phaedon cochleariae) while the leaves are still moist.

Measured: kill in %

CCOC(=O)OC1=C(c2c(C)cc(C)cc2C)C(=O)NC12CCCOC2 (stereo not drawn) [Example I-1-c-1]
100%: [1] | [2] | [3]

Cc1cc(C)c(C2=C(OC(=O)C(C)(C)C)C3(CCCOC3)NC2=O)c(C)c1 (stereo not drawn) [Example I-1-b-1]
100%: [4] | [2] | [5]

Cc1cc(C)c(C2=C(O)C3(CCCOC3)NC2=O)c(C)c1 (stereo not drawn) [Example I-1-a-1]
100%: [4] | [2] | [5]

From patent publication US6630594B2, “Methods of making substituted phenylketoenols” (Bayer Aktiengesellschaft, priority 1996, dated 2003)
